Measured values: patent US7642239B2, “Inhibition of placenta growth factor (PLGF) mediated metastasis and/or angiogenesis” (Center for Molecular Medicine and Immunology, priority 2005, dated 2010)
Marks after values point to notes of the source that are not given here. Ends that are not written are not given here.

Tests used:
[1] = system: PlGF-mediated angiogenesis in corneal tissues; test: Mouse corneal micropocket angiogenesis assay; assay type: in vivo, C57B16/J mice; settings: micropellets, 100 ng PlGF with 1 μM peptide, day 5
Description: The ability of PlGF ligands to block PlGF-mediated angiogenesis in corneal tissues in vivo is investigated. Corneal micropockets are created using a modified von Graefe cataract knife in both eyes of male 5-6-wk-old C57B16/J mice. Micropellets comprised of a sustained release formulation of polyglucuronic acid/polylactic acid containing 100 ng of PlGF or PlGF with 1 μM BP-1, BP-2, BP-3 or BP-4 are implanted into each corneal pocket. Eyes are examined by a slit-lamp biomicroscope on day 5 after pellet implantation. Vessel length and neovascularization are measured.

[2] = system: MCF-7; test: Matrigel cell invasion assay, MCF-7; assay type: cell-based, human; settings: 48 h
Description: (§1) Cellular invasion was determined by addition of 5×10^4cells to growth factor-reduced Matrigel invasion chambers (BD Biosciences Discovery Labware, Bedford, Mass.) (Taylor et al., 2003b; Passaniti et al., 1992, Lab Invest 67, 519-528). Additives to the Matrigel® plugs were pre-incubated together in a total volume of 100 μl PBS at RT for 10 min, after which each additive was added to the Matrigel. Growth factors (2.0 or 0.2 nM), peptide (2 μg/ml), or antibody (1 μg/ml) were added to cells in low serum (0.1% fetal bovine serum [FBS]) medium. Baseline and chemoattractant-based invasion (10% FBS) were included. The number of invading cells was determined by counting the number of cells on the bottom of the invasion chamber membrane after staining at 100× magnification after 24 h (MDA-MB-231) or 48 h (MCF-7, MDA-MB-468). The results of three to five separate experiments are presented.

[3] = target: T1, VEGF165 (Homo sapiens, UniProt P15692); test: Free peptide binding ELISA (FLAG epitope probe), VEGF-coated wells
T1 construct: purchased R&D Systems
T1 sequence (P15692 27-191 isoform P15692-4): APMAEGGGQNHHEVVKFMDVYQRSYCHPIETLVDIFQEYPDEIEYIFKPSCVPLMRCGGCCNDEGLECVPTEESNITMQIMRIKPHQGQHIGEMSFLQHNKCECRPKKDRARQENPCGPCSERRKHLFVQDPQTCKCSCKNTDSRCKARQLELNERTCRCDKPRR
Description: Competition assays were done with 2.5 or 25 U/ml heparin (Sigma, St. Louis, Mo.). BP1, 3, 4, and a scrambled version of BP3 (scrBP3) were synthesized with a linker followed by the FLAG epitope ([…] SEQ ID NO:5) at the C-terminus. Thirty minutes after addition of the first reagent, the second reagent was added, followed by another 30 minute incubation. Peptide binding was assessed by probing for the FLAG epitope (Prickett et al., Biotechniques 7:580-9, 1989; Castrucci et al., J. Virol. 66:4647-53, 1992). Absorbance was read at 490 nm.

[4] = system: MDA-MB-231; test: Matrigel cell invasion assay, MDA-MB-231; assay type: cell-based, human
Description: as §1

[5] = system: MDA-MB-468; test: Matrigel cell invasion assay, MDA-MB-468; assay type: cell-based, human; settings: 48 h
Description: as §1

[6] = system: MDA-MB-231 mfp tumor; test: Orthotopic mammary fat pad (mfp) MDA-MB-231 model; assay type: in vivo, SCID mice
Source text: MDA-MB-231, grown in tissue culture, was also implanted in the mammary fat pad (mfp) of SCID mice (3×10^6 cells, 4-5 mice/group). In this model, large pulmonary metastases are less likely to develop (Richert et al., Breast Cancer Res. 7:R819-27, 2005). Peptide treatment was commenced on day 5 after implantation, when small tumors were palpable in all mice (8 treatments). Three days after the final peptide treatment, tumors were removed and weighed. Lungs were harvested and examined microscopically for metastases, as described above.

[7] = system: MDA-MB-468; test: Wound-healing (motility) assay, MDA-MB-468; assay type: cell-based, human; settings: for Relative activity: unit assumed; for Migrating cells: 18-24 h
Description: (§2) MCF-7, MDA-MB-23 1, and MDA-MB-468 breast tumor cell lines or HECs were seeded onto sterile glass coverslips in Petri dishes or six-well plates. When the cells were 70-80% confluent, the monolayers were scratched with a sterile plastic pipet tip.
(§3) Inhibitor concentrations were 50 μM PD98059 (PD98) (mitogen activated protein kinase-kinase 1 [MEK1] inhibitor), 5 nM Wortmannin (phosphatidyl inositol 3 kinase [PI3K] inhibitor), or human recombinant soluble Flt-1 (sFlt-1) (R&D Systems). […] Cells were pre-incubated with PD98 and Wortmannin for 15-30 min before addition of PlGF. Stained (Wright-Giemsa) and mounted coverslips were examined microscopically. Five to ten 100× fields were evaluated by counting the number of cells separated from the wound edges and which appeared to be migrating toward the center of the wound. Results are reported as the average number of cells migrating into the wound/100× field. In some cases data from separate experiments were combined to accommodate inclusion of various treatments in the tables.
(§4) Antibody concentration was 1 μg/ml. MEK1 inhibitor, PD98059 (PD98), 50 μM. PI3K inhibitor, Wortmannin, 5 nM. […] Values for antibody and inhibitor treatments were from separate experiments which included all relevant controls. […] UT denotes untreated controls. *P<0.01 (ANOVA) compared to UT; † P<0.02 (ANOVA) compared to PlGF only. ‡ P<0.001 (ANOVA) compared to PlGF only.

[8] = system: MDA-MB-231; test: Wound-healing (motility) assay, MDA-MB-231; assay type: cell-based, human; settings: for Relative activity: unit assumed; for Migrating cells: 18-24 h
Description: as §2, §3, §4

[9] = PlGF 2 nM ± test agent, relative to PlGF-only value
[10] = VEGF 2 nM ± test agent, relative to VEGF-only value

SHRYRLAIQLHASDSSSSCV [BP1]
effect on PlGF mediated angiogenesis in corneal tissues [1]: inhibits | Average fold-change in the number of cells on the membrane compared to untreated controls ([2]; PlGF 0.2 nM ± peptide 2 μg/ml): 0.3 ± 0.0 fold | Average fold-change in the number of cells on the membrane compared to untreated controls ([2]; peptide 2 μg/ml alone): 0.7 ± 0.4 fold | binding to VEGF (in words) ([3]; ELISA-based binding assay): No measurable binding | binding to VEGF165 (A490) ([3]; peptide with C-terminal FLAG epitope): 0.299±0.174 | Average fold-change in the number of cells on the membrane compared to untreated controls ([4]; PlGF 0.2 nM ± peptide 2 μg/ml, 24 h): 1.3 ± 0.1 fold | invading cells, PlGF plus peptide ([4]; PlGF-stimulated invasion with added peptide, 24 h): 15±4.2 cells | decrease in PlGF-stimulated invasion ([4]; added peptide): 50% | Average fold-change in the number of cells on the membrane compared to untreated controls ([4]; peptide 2 μg/ml alone, 24 h): 1.0 ± 0.6 fold | Average fold-change in the number of cells on the membrane compared to untreated controls ([5]; PlGF 0.2 nM ± peptide 2 μg/ml): 0.6 ± 0.4 fold | Average fold-change in the number of cells on the membrane compared to untreated controls ([5]; peptide 2 μg/ml alone): 1.2 ± 0.3 fold | tumor weight ([6]; 8 peptide treatments, mock-treated 0.423±0.089): 0.345 ± 0.095 g | reduction in metastases ([6]; lung micrometastases): 82% | micrometastasis counts per mouse ([6]; lung, mock-treated 3.4±1.9): 0.6±0.5 | decrease in tumor weight ([6]; vs mock-treated, did not reach statistical significance): 23% | Relative activity [7, 9]: 97% | Relative activity [7, 10]: 113% | Migrating cells ([7]; growth factor PlGF 2 nM ± test agent (Flt-1 2 nM, peptide 2 μM, antibody 1 μg/ml)): 14.3 ± 8.1 cells/100× field | Migrating cells ([7]; growth factor VEGF 2 nM ± test agent): 15.8 ± 9.5 cells/100× field | Relative activity [8, 9]: 32% | Relative activity [8, 10]: 132% | effect on PlGF-stimulated motility (in words) ([8]; antibody 1 μg/ml, peptide 2 μM): inhibited | Migrating cells ([8]; growth factor PlGF 2 nM ± test agent (Flt-1 2 nM, peptide 2 μM, antibody 1 μg/ml, PD98059 50 μM, Wortmannin 5 nM)): 13.6 ± 6.1† cells/100× field | Migrating cells ([8]; growth factor VEGF 2 nM ± test agent (peptide 2 μM, antibody 1 μg/ml)): 14.7 ± 2.1 cells/100× field
